MIC data for three compounds are collected here from ChEMBL document CHEMBL1649202, “Temporal trends of antimicrobial resistance and clonality of invasive Streptococcus pneumoniae isolates in Finland, 2002 to 2006” (2009).

SMILES strings stand for the structures. ≈ marks a conversion by molar mass, not a printed value.

Holding throughout (assay type): functional
Assay [1] deals with Streptococcus pneumoniae. The assay can be described thus: Antimicrobial activity against Streptococcus pneumoniae serotype 23F ST 3250 by agar plate dilution method.
Assay [2] relates to Streptococcus pneumoniae. The assay can be described thus: Antimicrobial activity against Streptococcus pneumoniae serotype 23F ST 961 harboring ERY-resistant erm(B) gene by agar plate dilution method.
Assay [3] concerns Streptococcus pneumoniae. The assay can be described thus: Antimicrobial activity against Streptococcus pneumoniae serotype 23F ST 81 harboring ERY-resistant mef(E) gene by agar plate dilution method.
In assay [4] the test system is Streptococcus pneumoniae. The assay can be described thus: Antimicrobial activity against Streptococcus pneumoniae serotype 4 ST 205 by agar plate dilution method.
Assay [5] has as its system Streptococcus pneumoniae. The experiment in a line: Antimicrobial activity against Streptococcus pneumoniae serotype 14 ST 156 harboring ERY-resistant mef(E) gene by agar plate dilution method.
Assay [6] has as its system Streptococcus pneumoniae. The experiment in a line: Antimicrobial activity against Streptococcus pneumoniae serotype 18C ST 496 harboring ERY-resistant erm(B) gene by agar plate dilution method.
The test system of assay [7] is Streptococcus pneumoniae. The experiment in a line: Antimicrobial activity against Streptococcus pneumoniae serotype 19F ST 156 by agar plate dilution method.
In assay [8] the test system is Streptococcus pneumoniae. The experiment in a line: Antimicrobial activity against Streptococcus pneumoniae serotype 19F ST 671 by agar plate dilution method.
Assay [9] concerns Streptococcus pneumoniae. The experiment in a line: Antimicrobial activity against Streptococcus pneumoniae serotype 9V ST 156 harboring ERY-resistant erm(B) or mef(E) gene by agar plate dilution method.
Assay [10] concerns Streptococcus pneumoniae. The experiment in a line: Antimicrobial activity against Streptococcus pneumoniae serotype 6B ST 90 harboring ERY-resistant erm(B) gene by agar plate dilution method.
Assay [11] relates to Streptococcus pneumoniae. The experiment in a line: Antimicrobial activity against Streptococcus pneumoniae serotype 14 ST 13 harboring ERY-resistant mef(E) gene by agar plate dilution method.
Assay [12] concerns Streptococcus pneumoniae. The experiment in a line: Antimicrobial activity against Streptococcus pneumoniae serotype 14 ST 2918 by agar plate dilution method.
Assay [13] deals with Streptococcus pneumoniae. The experiment in a line: Antimicrobial activity against Streptococcus pneumoniae serotype 14 ST 143 harboring ERY-resistant erm(B) gene by agar plate dilution method.
For assay [14], the system named is Streptococcus pneumoniae. The assay can be described thus: Antimicrobial activity against Streptococcus pneumoniae serotype 19F ST 271 harboring ERY-resistant erm(B) and mef(E) gene by agar plate dilution method.
In assay [15] the test system is Streptococcus pneumoniae. The assay can be described thus: Antimicrobial activity against Streptococcus pneumoniae serotype 6B ST 138 by agar plate dilution method.
The test system of assay [16] is Streptococcus pneumoniae. The assay can be described thus: Antimicrobial activity against Streptococcus pneumoniae serotype 6B ST 3246 harboring ERY-resistant erm(B) gene by agar plate dilution method.
Assay [17] deals with Streptococcus pneumoniae. The assay can be described thus: Antimicrobial activity against Streptococcus pneumoniae serotype 19F ST 2917 harboring ERY-resistant erm(B) and mef(E) gene by agar plate dilution method.
For assay [18], the system named is Streptococcus pneumoniae. The assay can be described thus: Antimicrobial activity against Streptococcus pneumoniae serotype 17 ST 3248 by agar plate dilution method.
For assay [19], the system named is Streptococcus pneumoniae. The assay can be described thus: Antimicrobial activity against Streptococcus pneumoniae serotype 14 ST 2916 harboring ERY-resistant erm(B) gene by agar plate dilution method.
Assay [20] relates to Streptococcus pneumoniae. The experiment in a line: Antimicrobial activity against Streptococcus pneumoniae serotype 19F ST 3245 by agar plate dilution method.
The test system of assay [21] is Streptococcus pneumoniae. The assay can be described thus: Antimicrobial activity against Streptococcus pneumoniae serotype 6B ST 3249 by agar plate dilution method.
Assay [22] deals with Streptococcus pneumoniae. The experiment in a line: Antimicrobial activity against Streptococcus pneumoniae serotype 14 ST 2678 harboring ERY-resistant erm(B) gene by agar plate dilution method.
Assay [23] relates to Streptococcus pneumoniae. The assay can be described thus: Antimicrobial activity against Streptococcus pneumoniae serotype 19F ST 2694 harboring ERY-resistant mef(E) gene by agar plate dilution method.
For assay [24], the system named is Streptococcus pneumoniae. The experiment in a line: Antimicrobial activity against Streptococcus pneumoniae serotype 14 ST 2306 harboring ERY-resistant erm(B) gene by agar plate dilution method.
The subject of assay [25] is Streptococcus pneumoniae. The assay can be described thus: Antimicrobial activity against Streptococcus pneumoniae serotype 14 ST 3247 by agar plate dilution method.
Assay [26] has as its system Streptococcus pneumoniae. The experiment in a line: Antimicrobial activity against Streptococcus pneumoniae serotype 19F ST 236 by agar plate dilution method.
In assay [27] the test system is Streptococcus pneumoniae. The experiment in a line: Antimicrobial activity against Streptococcus pneumoniae serotype 10 ST 461 by agar plate dilution method.

For `CN(C)[C@@H]1C(O)=C(C(N)=O)C(=O)[C@@]2(O)C(O)=C3C(=O)c4c(O)cccc4[C@@](C)(O)[C@H]3C[C@@H]12` [TETRACYCLINE], the MIC (usually the least concentration at which growth counts as inhibited) in assay [1] stood at 16 µg/mL (≈ 36 µM); in [2], 0.25 µg/mL (≈ 0.563 µM); in [3] it was 1 µg/mL (≈ 2.25 µM); in assay [4], 1 µg/mL (≈ 2.25 µM); in assay [5], 0.25 µg/mL (≈ 0.563 µM); in [6] (read-out: MIC), 0.25 µg/mL (≈ 0.563 µM). Besides, the MIC in [7] was 0.25 µg/mL (≈ 0.563 µM); in assay [8] it was 0.5 µg/mL (≈ 1.13 µM); in assay [9], 0.25 µg/mL (≈ 0.563 µM); in assay [10], 0.5 µg/mL (≈ 1.13 µM); in [11], 0.25 µg/mL (≈ 0.563 µM); in assay [12], 0.5 µg/mL (≈ 1.13 µM). The results for the MIC in [13], in assay [14] (read-out: MIC) and in assay [15] were 0.25 µg/mL (≈ 0.563 µM), 16 µg/mL (≈ 36 µM) and 0.25 µg/mL (≈ 0.563 µM), respectively.
Regarding `CC1(C)S[C@@H]2[C@H](NC(=O)Cc3ccccc3)C(=O)N2[C@H]1C(=O)O` [PENICILLIN G], the minimal inhibitory concentration (MIC) in assay [16] is 2 µg/mL (≈ 5.98 µM); in assay [17] it was 2 µg/mL (≈ 5.98 µM); in assay [18] it was 2 µg/mL (≈ 5.98 µM); in assay [1], 2 µg/mL (≈ 5.98 µM); in assay [19], 2 µg/mL (≈ 5.98 µM); in assay [20] it was 4 µg/mL (≈ 12 µM). Further, the MIC in assay [2], in [3], in [4], in assay [21], in [22] and in assay [5] was 2 µg/mL (≈ 5.98 µM) each time. The minimum inhibitory concentration (MIC) in assay [23], in assay [24], in assay [6] (read-out: MIC), in [7], in [25] and in assay [8] was 2 µg/mL (≈ 5.98 µM) throughout. For the same compound, the MIC in assay [9], in [10], in assay [11], in assay [12], in [13] and in [14] (read-out: MIC) was 2 µg/mL (≈ 5.98 µM) throughout. In addition, the MIC was found to be 4 µg/mL (≈ 12 µM) in assay [15], 2 µg/mL (≈ 5.98 µM) in assay [26] and 2 µg/mL (≈ 5.98 µM) in assay [27].
For the compound `CC[C@H]1OC(=O)[C@H](C)[C@@H](O[C@H]2C[C@@](C)(OC)[C@@H](O)[C@H](C)O2)[C@H](C)[C@@H](O[C@@H]2O[C@H](C)C[C@H](N(C)C)[C@H]2O)[C@](C)(O)C[C@@H](C)C(=O)[C@H](C)[C@@H](O)[C@]1(C)O` [ERYTHROMYCIN], the MIC was above 128 µg/mL in assay [18]; above 128 µg/mL in [1]; above 128 µg/mL in assay [20]; 0.125 µg/mL (≈ 0.17 µM) in assay [3]; 32 µg/mL (≈ 43.6 µM) in assay [4]; above 128 µg/mL in [21]. The minimal inhibitory concentration (MIC) in [5] is 0.125 µg/mL (≈ 0.17 µM); in [23], 8 µg/mL (≈ 10.9 µM); in [6] it was above 128 µg/mL; in [7], 0.125 µg/mL (≈ 0.17 µM); in [25] it was above 128 µg/mL; in [8], 32 µg/mL (≈ 43.6 µM). Moreover, the MIC in assay [9] is above 0.063 µg/mL; in [11], 16 µg/mL (≈ 21.8 µM); in assay [12] it was above 128 µg/mL; in [14], above 128 µg/mL; in assay [15], 16 µg/mL (≈ 21.8 µM); in [26] it was 8 µg/mL (≈ 10.9 µM). Further, the minimum inhibitory concentration (MIC) in assay [27] is above 128 µg/mL.
